Measurements from patent publication US10799590B2, “Compositions containing a bitter tastant and at least one sophorolipid, and methods of reducing bitter taste attributed to a bitter tastant in an edible composition” (The United States of America, as Represented by the …, priority 2015, dated 2020).

Assays:
[1] = test system: cultured human fungiform taste papillae cells (HBO cells); test: Calcium imaging of cultured human fungiform taste papillae (HBO) cells: response frequency, estimation of sweet potency; type: cell-based
Excerpt: In vitro cell-based assay of sweet property. Establishment and maintenance of cultures of human fungiform taste papillae cells (HBO cells): We previously established the current proprietary protocol (Ozdener, H., et al., Chem. Senses, 31(3): 279-90 (2006); Ozdener, M. H., et al., Chem. Senses, 36(7): 601-12 (2011); Ozdener, H., et al., Isolation and culture of human fungiform taste papillae cells, J. Vis. Exp., 2012 May 17;(63):e3730) which allowed us to culture human fungiform taste papillae cells retaining their physiological and molecular characteristics for more than a year. […] The human fungiform taste papillae cells were cultured according to protocols that we have published (Ozdener et al. 2006, Ozdener et al. 2011). Human fungiform taste papillae were removed and immediately placed into an isolation solution followed by enzymatic digestion. Digested fungiform papillae were then gently minced with a surgical razor and seeded on collagen type-1 coated coverslips and incubated at 36° C. in a humidified environment containing 5% CO2. The fungiform taste papillae cells were cultured in Iscove's Modified Dulbecco's medium containing 10% fetal bovine serum, 1:5 ratio of MCDB (Molecular, Cellular, and Developmental Biology) 153 medium, and a triple cocktail of antibiotics (100 U/mL/100 μg/mL, penicillin/streptomycin, and 0.5 μg/mL fungizone). Culture medium was replaced every 5-7 days by one-third of fresh culture medium. Human fungiform taste papillae cells have been maintained in culture for a period of more than 1 year without loss of viability and with retention of the molecular and biochemical properties of acutely isolated taste cells (Ozdener et al., 2011). Calcium imaging: Cultured taste cells grown for 3-4 days glass coverslips which were loaded for 30-60 min with the calcium sensitive dye fura-2 by incubating the cells in Ringer solution (145 mM NaCl, 5 mM KCl, 1 mM MgCl2, 1 mM CaCl2, 1 mM Na-pyruvate, 20 mM Hepes-Na and Cellobiose 15 mM, pH 7.2 with osmolarity adjusted to 300-310 by 5M NaCl) supplemented with […] (Molecular Probes Inc., Eugene, Oreg.) and 10 mg/ml Pluronic® F127 (Molecular Probes Inc.). Coverslips were then placed in a recording chamber and continuously bathed with Ringer solution superfusion. Stimuli were dissolved in Ringer and then pH and osmolarity readjusted if needed. Cells were exposed to sweet ([…]), bitter mixture (PTC (phenylthiocarbamide)) 2mM+Salicin 5 mM+Denatonium 2 mM), guaifenesin (GF, 3 mM) and acetaminophen (APAP, 3 mM), and various sophorolipids stimuli: sophorose, sophorolipid palmitic acid, sophorolipid stearic acid, sophorolipid oleic acid. […]

[2] = test system: chorda tympani nerve of wild-type B6 mice; test: Chorda tympani whole-nerve responses to lingual taste stimuli, wild-type B6 mice; type: in vivo; settings: lingual application (FIG. 6B, 7)
Description: (§1) Mouse model for sweet property and bitter-masking assay. Recordings of chorda tympani (CT) whole-nerve responses: All protocols involving animals were approved by the Institutional Animal Care and Use Committees at the Monell Center prior to the experiments. The study was performed with mice from two strains: C57BL/6J inbred strain (B6; Jackson Laboratory, Bar Harbor, Me.) bearing the wild-type Tas1r3 allele was used as the control, and the C57BL/6J-Tas1r3^tm1Rjm “gene-knockout” strain (T1R3-KO) lacking the entire T1R3 coding region and devoid of T1R3 protein ([…]., et al., Science, 301: 850-853 (2003)). Afferent signals from taste cells are relayed to the brain via three major gustatory nerves: the chorda tympani, glossopharyngeal, and greater superficial petrosal. […] Neural responses resulting from chemical stimulations of the tongue were fed into an amplifier (Grass Instruments, West Warwick, R.I.) and monitored on an oscilloscope and an audio monitor. Whole-nerve responses were integrated with a time constant of 1.0 s and recorded using a computer for later analysis using a PowerLab system (PowerLab/sp4; AD Instruments, Colorado Springs, Colo.). […] To analyze nerve responses to each stimulus, the magnitudes of integrated responses at 5, 10, 15, 20, and 25 s after stimulus onset were measured and averaged. […]

[3] = test system: T1R3; test: Chorda tympani whole-nerve responses to lingual taste stimuli, T1R3-KO mice; type: in vivo; settings: lingual application (FIG. 6A, 7)
Description: as §1

Compound	%-responsive cells ([1]; cultured human taste cells, concentration 5 mM)	Concentration adjusted response frequency ([1]; tested at 5 mM, sucralose 5 mM is the standard)	chorda tympani responses [2]	chorda tympani responses [3]
OC[C@H]1O[C@H](O[C@]2(CCl)O[C@H](CCl)[C@@H](O)[C@@H]2O)[C@H](O)[C@@H](O)[C@H]1Cl [Sucralose, sucralose]	16.67%	16.67		
OC[C@H]1O[C@@](CO)(O[C@H]2O[C@H](CO)[C@@H](O)[C@H](O)[C@H]2O)[C@@H](O)[C@@H]1O [sucrose]			present	nearly absent
